Each block holds one molecule with its values, some of them ahead of it. Calls of active or inactive are those of the source. The calls are words filed in the database; no cut-off is given here.
Tests used:
[1] = molecular target: T1, Type-1 angiotensin II receptor (Homo sapiens) (UniProt P30556); experiment: Antagonist activity at type-1 angiotensin 2 receptor (unknown origin) at 20 nM by calcium mobilizing assay relative to fimasartan; assay type: functional
T1 sequence (whole entry): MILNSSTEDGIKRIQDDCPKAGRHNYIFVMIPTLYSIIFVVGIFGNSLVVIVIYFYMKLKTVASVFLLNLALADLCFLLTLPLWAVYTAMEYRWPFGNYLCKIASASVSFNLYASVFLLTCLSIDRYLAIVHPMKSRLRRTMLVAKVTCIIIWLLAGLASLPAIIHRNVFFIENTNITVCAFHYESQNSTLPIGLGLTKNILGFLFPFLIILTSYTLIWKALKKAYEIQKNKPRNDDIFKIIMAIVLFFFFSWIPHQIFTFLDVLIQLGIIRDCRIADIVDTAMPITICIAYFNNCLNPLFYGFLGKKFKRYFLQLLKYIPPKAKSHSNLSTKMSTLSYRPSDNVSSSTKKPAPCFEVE

[2] = molecular target: T2, Peroxisome proliferator-activated receptor gamma (Homo sapiens) (UniProt P37231); experiment: Agonist activity at PPARgamma (unknown origin) at 1 uM relative to telmisartan
T2 sequence (whole entry): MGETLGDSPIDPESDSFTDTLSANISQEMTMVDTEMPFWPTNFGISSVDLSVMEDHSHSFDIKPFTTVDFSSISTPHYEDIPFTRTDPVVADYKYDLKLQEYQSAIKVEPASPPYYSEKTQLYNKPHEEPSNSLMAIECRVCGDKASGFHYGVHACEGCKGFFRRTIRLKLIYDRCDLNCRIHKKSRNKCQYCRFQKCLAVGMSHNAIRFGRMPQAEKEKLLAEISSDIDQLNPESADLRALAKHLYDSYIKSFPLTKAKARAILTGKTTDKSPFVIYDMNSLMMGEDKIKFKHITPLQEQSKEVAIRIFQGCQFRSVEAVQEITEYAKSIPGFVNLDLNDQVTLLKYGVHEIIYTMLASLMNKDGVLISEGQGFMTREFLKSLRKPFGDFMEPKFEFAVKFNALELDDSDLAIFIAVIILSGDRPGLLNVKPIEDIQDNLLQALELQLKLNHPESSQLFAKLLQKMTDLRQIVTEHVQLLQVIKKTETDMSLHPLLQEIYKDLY

[3] = molecular target: T3, Type-1 angiotensin II receptor (Homo sapiens, UniProt P30556); experiment: Antagonist activity at type-1 angiotensin 2 receptor (unknown origin) by calcium mobilizing assay; assay type: functional
T3 sequence (P30556 whole entry): T1 sequence (whole entry)

[4] = system: Mus musculus; experiment: Antidiabetic activity in db/db mouse model assessed as suppression of blood glucose increase at 20 mg/kg qd, po administered for 13 days; assay type: functional, organism-based
[5] = system: Mus musculus; experiment: Toxicity in db/db mouse model assessed as suppression of weight gain at 20 mg/kg, po qd measured after 11 days; assay type: organism-based; conditions: in vivo, 264 h
[6] = Half life in rat at 10 mg/kg, po; assay type: ADME, organism-based; conditions: in vivo
[7] = Tmax in rat at 10 mg/kg, po; assay type: ADME, organism-based; conditions: in vivo
[8] = Cmax in rat at 10 mg/kg, po; assay type: ADME, organism-based; parameters: dose 10 mg/kg, route oral; conditions: in vivo
[9] = Cmax in mouse at 20 mg/kg, po; assay type: ADME, organism-based; parameters: dose 20 mg/kg, route oral; conditions: in vivo
[10] = AUClast in rat at 10 mg/kg, po; assay type: ADME, organism-based; parameters: dose 10 mg/kg, route oral, time 0 - last; conditions: in vivo
[11] = AUClast in mouse at 20 mg/kg, po; assay type: ADME, organism-based; parameters: dose 20 mg/kg, route oral, time 0 - last; conditions: in vivo
[12] = system: Rattus norvegicus; experiment: Antihypertensive activity in angiotensin 2 induced hypertension rat model at 3 mg/kg, po measured until 8 hrs post dose; assay type: functional, organism-based
[13] = system: Rattus norvegicus; experiment: Antihypertensive activity in angiotensin 2 induced hypertension rat model assessed as time required for 50% reduction in blood pressure at 3 mg/kg, po; assay type: functional
[14] = molecular target: T3, Type-1 angiotensin II receptor; experiment: Antagonist activity at type-1 angiotensin 2 receptor (unknown origin) by beta-arrestin recruitment assay; assay type: functional
[15] = molecular target: T2, Peroxisome proliferator-activated receptor gamma (Homo sapiens); experiment: Agonist activity at PPARgamma (unknown origin) at 1 uM relative to pioglitazone
[16] = molecular target: T4, Peroxisome proliferator-activated receptor gamma (Homo sapiens, UniProt P37231); experiment: Agonist activity at PPARgamma (unknown origin)
T4 sequence (P37231 whole entry): T2 sequence (whole entry)

[17] = molecular target: Voltage-gated inwardly rectifying potassium channel KCNH2 (Homo sapiens, UniProt Q12809); experiment: Inhibition of human ERG
Sequence of Voltage-gated inwardly rectifying potassium channel KCNH2 (Q12809 whole entry): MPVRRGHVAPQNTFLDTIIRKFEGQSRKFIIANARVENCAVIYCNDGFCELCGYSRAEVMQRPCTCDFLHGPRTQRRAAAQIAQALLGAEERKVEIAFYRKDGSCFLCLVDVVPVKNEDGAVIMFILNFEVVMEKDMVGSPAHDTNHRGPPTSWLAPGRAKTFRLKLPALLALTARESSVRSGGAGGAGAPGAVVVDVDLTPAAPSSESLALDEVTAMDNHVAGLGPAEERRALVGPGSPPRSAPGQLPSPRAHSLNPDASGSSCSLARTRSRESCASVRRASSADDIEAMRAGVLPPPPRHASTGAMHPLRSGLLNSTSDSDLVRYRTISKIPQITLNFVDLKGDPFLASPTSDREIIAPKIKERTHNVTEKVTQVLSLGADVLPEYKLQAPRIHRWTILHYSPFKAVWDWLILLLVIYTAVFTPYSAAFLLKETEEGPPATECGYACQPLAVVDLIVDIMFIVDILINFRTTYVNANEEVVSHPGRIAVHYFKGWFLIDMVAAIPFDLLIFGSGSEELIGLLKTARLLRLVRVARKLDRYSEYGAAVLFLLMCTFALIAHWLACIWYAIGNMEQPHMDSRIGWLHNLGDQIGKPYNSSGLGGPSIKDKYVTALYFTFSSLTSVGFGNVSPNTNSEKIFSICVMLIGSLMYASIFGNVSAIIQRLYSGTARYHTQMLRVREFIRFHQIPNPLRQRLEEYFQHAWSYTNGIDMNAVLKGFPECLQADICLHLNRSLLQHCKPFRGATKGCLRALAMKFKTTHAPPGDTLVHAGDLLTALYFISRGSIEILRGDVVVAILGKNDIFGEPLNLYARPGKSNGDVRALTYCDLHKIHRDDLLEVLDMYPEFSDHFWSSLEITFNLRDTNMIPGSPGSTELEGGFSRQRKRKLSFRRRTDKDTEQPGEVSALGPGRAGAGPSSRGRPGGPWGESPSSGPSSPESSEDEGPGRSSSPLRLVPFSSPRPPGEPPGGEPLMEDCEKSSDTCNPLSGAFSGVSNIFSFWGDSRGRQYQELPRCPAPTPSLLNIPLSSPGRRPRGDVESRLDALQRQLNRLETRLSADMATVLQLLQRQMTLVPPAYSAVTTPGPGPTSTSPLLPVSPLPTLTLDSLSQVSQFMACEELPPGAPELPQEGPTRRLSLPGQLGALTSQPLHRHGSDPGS

[18] = Stability in mouse liver microsomes assessed as compound remaining after 30 mins; assay type: ADME, microsome; conditions: read-out: Stability
[19] = Stability in rat liver microsomes assessed as compound remaining after 30 mins; assay type: ADME, microsome; conditions: read-out: Stability
[20] = Stability in dog liver microsomes assessed as compound remaining after 30 mins; assay type: ADME, Canis lupus familiaris, microsome; conditions: read-out: Stability
[21] = Stability in human liver microsomes assessed as compound remaining after 30 mins; assay type: ADME, microsome; conditions: read-out: Stability
[22] = molecular target: T5, CYP1A2 (Homo sapiens, UniProt P05177); experiment: Inhibition of CYP1A2 (unknown origin) assessed as remaining activity at 10 uM; assay type: ADME; conditions: read-out: Activity
T5 sequence (P05177 whole entry): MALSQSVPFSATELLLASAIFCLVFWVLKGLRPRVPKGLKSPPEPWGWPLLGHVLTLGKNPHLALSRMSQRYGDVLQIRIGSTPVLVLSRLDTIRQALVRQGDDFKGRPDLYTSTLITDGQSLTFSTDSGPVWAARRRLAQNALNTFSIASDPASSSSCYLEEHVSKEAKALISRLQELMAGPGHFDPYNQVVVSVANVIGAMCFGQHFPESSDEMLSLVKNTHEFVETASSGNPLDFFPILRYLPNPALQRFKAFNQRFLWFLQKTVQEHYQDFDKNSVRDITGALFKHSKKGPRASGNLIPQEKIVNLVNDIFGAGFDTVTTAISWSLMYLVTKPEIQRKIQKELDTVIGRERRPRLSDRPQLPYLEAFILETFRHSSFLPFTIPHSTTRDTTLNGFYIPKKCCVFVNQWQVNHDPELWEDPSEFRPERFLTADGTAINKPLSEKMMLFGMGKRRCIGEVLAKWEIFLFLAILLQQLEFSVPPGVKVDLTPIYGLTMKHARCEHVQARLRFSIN

[23] = molecular target: CYP2C9 (Homo sapiens, UniProt P11712); experiment: Inhibition of CYP2C9 (unknown origin) assessed as remaining activity at 10 uM; assay type: ADME; conditions: read-out: Activity
Sequence of CYP2C9 (P11712 whole entry): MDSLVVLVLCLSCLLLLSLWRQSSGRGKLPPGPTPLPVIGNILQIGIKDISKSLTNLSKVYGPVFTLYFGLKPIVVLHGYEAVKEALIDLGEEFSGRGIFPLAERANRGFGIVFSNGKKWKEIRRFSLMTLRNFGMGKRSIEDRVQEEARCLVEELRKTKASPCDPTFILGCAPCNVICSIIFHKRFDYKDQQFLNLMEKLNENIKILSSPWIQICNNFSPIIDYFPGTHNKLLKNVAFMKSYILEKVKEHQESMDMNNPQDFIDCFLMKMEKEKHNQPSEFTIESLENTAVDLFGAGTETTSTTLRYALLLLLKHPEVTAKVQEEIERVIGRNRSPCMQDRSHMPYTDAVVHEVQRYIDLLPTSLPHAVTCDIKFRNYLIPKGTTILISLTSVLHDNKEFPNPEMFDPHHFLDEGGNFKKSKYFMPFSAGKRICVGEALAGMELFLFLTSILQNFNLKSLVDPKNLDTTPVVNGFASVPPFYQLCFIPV

[24] = molecular target: CYP2C19 (Homo sapiens, UniProt P33261); experiment: Inhibition of CYP2C19 (unknown origin) assessed as remaining activity at 10 uM; assay type: ADME; conditions: read-out: Activity
Sequence of CYP2C19 (P33261 whole entry): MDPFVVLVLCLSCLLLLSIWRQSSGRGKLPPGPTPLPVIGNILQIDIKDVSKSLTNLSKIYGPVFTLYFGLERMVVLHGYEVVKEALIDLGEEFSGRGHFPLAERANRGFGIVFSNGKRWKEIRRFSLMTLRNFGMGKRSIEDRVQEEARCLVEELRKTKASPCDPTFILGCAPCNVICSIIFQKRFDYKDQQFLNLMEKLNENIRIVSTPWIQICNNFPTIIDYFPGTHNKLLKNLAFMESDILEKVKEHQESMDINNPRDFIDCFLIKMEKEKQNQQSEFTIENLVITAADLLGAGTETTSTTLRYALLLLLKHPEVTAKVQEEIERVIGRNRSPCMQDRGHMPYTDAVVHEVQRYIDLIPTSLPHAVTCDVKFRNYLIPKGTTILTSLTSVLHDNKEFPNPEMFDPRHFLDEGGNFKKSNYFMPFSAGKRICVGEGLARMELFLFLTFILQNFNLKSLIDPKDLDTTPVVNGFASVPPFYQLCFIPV

[25] = molecular target: CYP2D6 (Homo sapiens, UniProt P10635); experiment: Inhibition of CYP2D6 (unknown origin) assessed as remaining activity at 10 uM; assay type: ADME; conditions: read-out: Activity
Sequence of CYP2D6 (P10635 whole entry): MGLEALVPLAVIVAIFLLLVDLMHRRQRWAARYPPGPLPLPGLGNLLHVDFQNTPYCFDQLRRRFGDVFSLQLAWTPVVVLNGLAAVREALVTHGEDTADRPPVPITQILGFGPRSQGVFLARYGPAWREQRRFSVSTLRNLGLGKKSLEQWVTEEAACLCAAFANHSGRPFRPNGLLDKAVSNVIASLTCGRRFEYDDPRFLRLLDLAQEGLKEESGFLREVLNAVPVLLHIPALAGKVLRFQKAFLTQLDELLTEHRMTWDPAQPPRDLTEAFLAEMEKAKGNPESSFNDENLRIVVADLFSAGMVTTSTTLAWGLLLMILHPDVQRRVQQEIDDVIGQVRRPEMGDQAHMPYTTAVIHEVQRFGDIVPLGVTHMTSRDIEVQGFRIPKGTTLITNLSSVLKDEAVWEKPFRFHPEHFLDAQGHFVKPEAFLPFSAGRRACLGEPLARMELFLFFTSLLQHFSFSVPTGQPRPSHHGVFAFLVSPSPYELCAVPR

[26] = molecular target: CYP3A4 (Homo sapiens, UniProt P08684); experiment: Inhibition of CYP3A4 (unknown origin) assessed as remaining activity at 10 uM; assay type: ADME; conditions: read-out: Activity
Sequence of CYP3A4 (P08684 whole entry): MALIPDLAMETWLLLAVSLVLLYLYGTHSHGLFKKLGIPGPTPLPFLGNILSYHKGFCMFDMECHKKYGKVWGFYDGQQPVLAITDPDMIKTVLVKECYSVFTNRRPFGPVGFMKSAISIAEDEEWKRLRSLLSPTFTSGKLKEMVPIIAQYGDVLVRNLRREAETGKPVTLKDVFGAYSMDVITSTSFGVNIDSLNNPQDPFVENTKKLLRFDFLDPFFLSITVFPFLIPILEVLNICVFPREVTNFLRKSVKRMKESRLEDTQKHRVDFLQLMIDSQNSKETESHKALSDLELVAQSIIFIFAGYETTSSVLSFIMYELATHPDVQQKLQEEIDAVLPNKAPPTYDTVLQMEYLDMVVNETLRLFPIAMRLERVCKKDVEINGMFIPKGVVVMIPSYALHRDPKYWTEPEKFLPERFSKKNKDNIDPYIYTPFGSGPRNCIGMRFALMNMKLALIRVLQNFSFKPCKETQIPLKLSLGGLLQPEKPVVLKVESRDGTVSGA

[27] = Half life in rat at 60 mg/kg, po; assay type: ADME, organism-based; conditions: in vivo
[28] = Half life in mouse at 60 mg/kg, po; assay type: ADME, organism-based; conditions: in vivo
[29] = Tmax in rat at 60 mg/kg, po; assay type: ADME, organism-based; conditions: in vivo
[30] = Tmax in mouse at 60 mg/kg, po; assay type: ADME, organism-based; conditions: in vivo
[31] = Cmax in rat at 60 mg/kg, po; assay type: ADME, organism-based; parameters: dose 60 mg/kg, route oral; conditions: in vivo
[32] = Cmax in mouse at 60 mg/kg, po; assay type: ADME, organism-based; parameters: dose 60 mg/kg, route oral; conditions: in vivo
[33] = AUClast in rat at 60 mg/kg, po; assay type: ADME, organism-based; parameters: dose 60 mg/kg, time 0 - last, route oral; conditions: in vivo
[34] = AUClast in mouse at 60 mg/kg, po; assay type: ADME, organism-based; parameters: dose 60 mg/kg, time 0 - last, route oral; conditions: in vivo
[35] = system: Rattus norvegicus; experiment: Antihypertensive activity in angiotensin 2 induced hypertension rat model at 30 mg/kg, po measured until 8 hrs post dose; assay type: functional, organism-based
[36] = system: Rattus norvegicus; experiment: Antihypertensive activity in angiotensin 2 induced hypertension rat model at 30 mg/kg, po measured after 24 hrs relative to fimasartan; assay type: functional
[37] = system: Rattus norvegicus; experiment: Antihypertensive activity in angiotensin 2 induced hypertension rat model assessed as time required for 50% reduction in blood pressure at 30 mg/kg, po; assay type: functional
[38] = system: Mus musculus; experiment: Antidiabetic activity in db/db mouse model assessed as suppression of blood glucose increase at 60 mg/kg qd, po administered for 13 days; assay type: functional, organism-based
[39] = system: Mus musculus; experiment: Toxicity in db/db mouse model assessed as suppression of weight gain at 60 mg/kg, po qd measured after 11 days; assay type: organism-based; conditions: in vivo, 264 h
[40] = Ratio of AUClast in rat at 60 mg/kg, po to AUClast in mouse at 60 mg/kg, po; assay type: ADME, organism-based; conditions: in vivo

Compound: CCCCc1nc(C)c(CC(=S)N(C)C)c(=O)n1Cc1ccc(-c2ccccc2C(=O)O)cc1
inhibition [1]: 80% | Activity [2]: 140%

Compound: Cc1nc(C2CC2)n(Cc2ccc(-c3ccccc3-c3noc(=O)[nH]3)cc2)c(=O)c1CC(=S)N(C)C
inhibition [1]: 9.5%

Compound: CCc1ccc(CCOc2ccc(CC3SC(=O)NC3=O)cc2)nc1 (centres undefined) [PIOGLITAZONE]
Activity [4]: Active | Activity [5]: Non-Toxic

Compound: CCCCc1nc(C)c(CC(=S)N(C)C)c(=O)n1Cc1ccc(-c2ccccc2-c2nnn[nH]2)cc1 [FIMASARTAN]
IC50 [3]: 4.5 nM | Activity [2]: 0% | half-life [6]: 3.6 h | Tmax [7]: 7.8 min | Cmax [8]: 518 ng/mL | Cmax [9]: 145 ng/mL | AUC(0-t) [10]: 1930 ng·h/mL | AUC(0-t) [11]: 254 ng·h/mL | Activity [12]: Active | Time [13]: 22 h

Compound: CCCCc1nc(C)c(CC(=S)N(C)C)c(=O)n1Cc1ccc(-c2ccccc2-c2noc(=O)[nH]2)cc1
IC50 [3]: 1.6 nM | Activity [2]: 120%

Compound: CCCCc1nc(C(C)C)c(CC(=S)N2CCCC2)c(=O)n1Cc1ccc(-c2ccccc2-c2noc(=O)[nH]2)cc1
IC50 [3]: 2.2 nM | Activity [2]: 156% | IC50 [14]: 10.5 nM | Activity [15]: 66% | EC50 [16]: 3100 nM | IC50 [17]: 7000 nM | remaining at 0.5 h [18]: 11% | remaining at 0.5 h [19]: 24% | remaining at 0.5 h [20]: 62% | remaining at 0.5 h [21]: 13% | activity at 10 µM [22]: 97% | activity at 10 µM [23]: 36% | activity at 10 µM [24]: 84% | activity at 10 µM [25]: 99% | activity at 10 µM [26]: 62% | half-life [27]: 4.73 h | half-life [28]: 3.67 h | Tmax [29]: 1.17 h | Tmax [30]: 0.5 h | Cmax [31]: 2570 ng/mL | Cmax [32]: 1860 ng/mL | AUC(0-t) [33]: 13400 ng·h/mL | AUC(0-t) [34]: 2570 ng·h/mL | Activity [35]: Active | Activity [36]: 50% | Time [37]: 16 h | Activity [38]: Active | Activity [39]: Non-Toxic | Ratio AUC [40]: 4

Compound: Cc1nc(CC(C)C)n(Cc2ccc(-c3ccccc3-c3noc(=O)[nH]3)cc2)c(=O)c1CC(=S)N(C)C
inhibition [1]: 0% | Activity [2]: 70%

The remaining lines, values ahead:

IC50 [3]: 5.6 nM | Activity [2]: 83%
Compound: CCCCc1nc(C)c(CC(=S)N2CCOCC2)c(=O)n1Cc1ccc(-c2ccccc2-c2noc(=O)[nH]2)cc1

inhibition [1]: 107% | Activity [2]: 106%
Compound: CCCCc1nc(C)c(CC(=S)N(C)C(C)C)c(=O)n1Cc1ccc(-c2ccccc2-c2noc(=O)[nH]2)cc1

IC50 [3]: 1.8 nM | Activity [2]: 100%
Compound: CCCCc1nc(C)c(CC(=S)N2[C@H](C)CC[C@H]2C)c(=O)n1Cc1ccc(-c2ccccc2-c2noc(=O)[nH]2)cc1

— ChEMBL document CHEMBL4265900, “Discovery of the bifunctional modulator of angiotensin II type 1 receptor (AT1R) and PPARγ derived from the AT1R antagonist, Fimasartan” (Bioorg Med Chem Lett, 2018)
